These results are taken from patent US7994185B2, “Benzene sulfonamide thiazole and oxazole compounds” (Glaxo Smith Kline LLC, priority 2008, dated 2011).

In assay [1] the target is T1, BRAFV600E full-length (amino acids 2-766) (Homo sapiens, UniProt P15056, V600E).
T1 construct: His6-tagged BRAFV600E full-length (amino acids 2-766); His6; made in house; host or cells: baculovirus expression system (insect cells)
The experiment in a line: B-Raf Accelerated MEK ATPase assay (BRAMA). Format: biochemical. As to conditions: categorized. The method, boiled down:
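Coupled-enzyme readout: ADP generated by MEK-mediated ATP hydrolysis, uncoupled from ERK phosphorylation, is linked to NADH oxidation through pyruvate kinase and lactate dehydrogenase.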

Assay [2] has as its system Human colon tumor cells (Colo205). The assay is described as follows: Cell growth inhibition assay (CellTiter-Glo), Colo205. The format is cell-based. The method, then:
Human colon tumor cells (Colo205) were cultured in RPMI (Mediatech 50-020-PB) containing 10% FBS and 1% penicillin-streptomycin.
The next day, compounds were diluted as follow: For 96-well assays, 13.5 μL of compound in DMSO were diluted using nine (9) serial 1:3 dilutions of 4.5 μL in 9 μL of DMSO. Medium (270 μL/well of RPMI with 10% FBS and 1% penicillin-streptomycin) was added to the plates. Aliquots (7 μL) were added to cells in the final assay giving a final DMSO concentration of 0.2%. For 384-well assays, 15 μL of compound in DMSO were diluted using nine (9) serial 1:3 dilutions of 5 μL in 10 μL of DMSO, followed by a further dilution of 5 μL of compound with 95 μL of medium, of which 2 μL were added to cells in the final assay giving a final DMSO concentration of 0.2%. Cells were incubated at 37° C., 5% CO2 for 3 days.
Total ATP was measured (as a surrogate estimate of cell number) using CellTiter-Glo® reagent (Promega G7571). Briefly, plates were removed from the incubator and allowed to equilibrate to room temperature for 30 minutes. CellTiter-Glo® (25 μL or 55 μL for 384-well or 96-well assays, respectively) reagent was added to each well and plates were shaken on an orbital plate shaker for 2 minutes. Plates were incubated without shaking for a further 30 minutes and read on an LJL Analyst GT reader in luminometer mode with an integration time of 0.5 seconds per well. Percent inhibition of cell growth was calculated relative to DMSO vehicle-treated control wells.
(ATP-based viability assays read luminescence as a measure of living cells.)

Assay [3] has as its system Human melanoma cancer cells (SK-MEL-28). The assay is described as follows: Cell growth inhibition assay (CellTiter-Glo), SK-MEL-28. Format: cell-based.
The mark [4] stands for this setting: B-Raf Activity, Table 1a, highest pIC50 for the one or more runs.
[5] abbreviates: Table 1b, later runs, average pIC50 for the one or more runs, read-out: B-Raf pIC50 (converted).
[6] abbreviates: COLO 205, 72 h, Table 2a, 3 days incubation, read-out: Activity in Colo205 Tumor Cells.
Setting [7] is: COLO 205, Table 2b, later runs, average for the one or more runs, categorized, read-out: IC50 for Colo205.
Setting [8] is: SK-MEL-28, 72 h, Table 3a, 3 days incubation, read-out: Activity in SK-MEL-28 Tumor Cells.
Setting [9] is: SK-MEL-28, Table 3b, later runs, average for the one or more runs, categorized, read-out: IC50 for SK-MEL-28.
Setting [10] is: B-Raf pIC50, Table 1b, later runs, average pIC50 for the one or more runs.

The structures appear in SMILES notation. Where a name gives a salt, the structure may show the parent alone. Read-outs that look alike come from different tables or passages of the source.

T1 sequence (P15056 2-766 V600E): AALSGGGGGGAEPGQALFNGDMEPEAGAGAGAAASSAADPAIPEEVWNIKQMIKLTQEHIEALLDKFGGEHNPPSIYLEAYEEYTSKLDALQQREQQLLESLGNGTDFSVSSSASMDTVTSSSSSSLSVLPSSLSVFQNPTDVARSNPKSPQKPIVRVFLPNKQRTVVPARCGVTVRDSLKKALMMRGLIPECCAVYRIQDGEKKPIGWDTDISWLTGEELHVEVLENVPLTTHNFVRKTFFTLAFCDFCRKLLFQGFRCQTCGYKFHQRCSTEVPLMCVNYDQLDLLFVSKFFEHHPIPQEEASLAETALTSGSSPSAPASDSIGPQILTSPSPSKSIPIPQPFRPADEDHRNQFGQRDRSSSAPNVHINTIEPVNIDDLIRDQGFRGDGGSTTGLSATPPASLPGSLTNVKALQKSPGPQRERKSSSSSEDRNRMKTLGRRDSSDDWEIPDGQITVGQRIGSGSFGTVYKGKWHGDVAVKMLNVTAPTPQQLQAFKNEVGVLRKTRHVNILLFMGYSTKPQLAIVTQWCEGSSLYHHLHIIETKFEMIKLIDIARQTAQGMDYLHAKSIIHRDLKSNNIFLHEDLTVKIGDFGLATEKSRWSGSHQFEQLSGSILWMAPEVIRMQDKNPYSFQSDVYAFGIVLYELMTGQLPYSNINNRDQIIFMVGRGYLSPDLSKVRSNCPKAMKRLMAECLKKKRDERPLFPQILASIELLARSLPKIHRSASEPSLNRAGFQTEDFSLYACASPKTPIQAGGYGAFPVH

Consider `CS(=O)(=O)N1CCC(Nc2nccc(-c3sc(C4CCOCC4)nc3-c3ccc(F)c(NS(=O)(=O)c4cc(F)ccc4F)c3)n2)CC1` [Example 70, 2,5-Difluoro-N-{2-fluoro-5-[5-(2-{[1-(methylsulfonyl)-4-piperidinyl]amino}-4-pyrimidinyl)-2-(tetrahydro-2H-pyran-4-yl)-1,3-thiazol-4-yl]phenyl}benzenesulfonamide], for which the IC50 was < 100 nM in assay [1] (setting [4]); 3.16 to 31.6 nM in assay [1] (setting [5]); 100 to 1000 nM in assay [2] (setting [6]); 100 to 1000 nM in assay [2] (setting [7]); 100 to 1000 nM in assay [3] (setting [8]); 100 to 1000 nM in assay [3] (setting [9]).
For `CC(C)c1nc(-c2ccc(F)c(NS(=O)(=O)c3cc(F)ccc3F)c2)c(-c2ccnc(NC3CCN(CCS(C)(=O)=O)CC3)n2)s1` [Example 126], the IC50 is < 100 nM in assay [1] (setting [4]); 31.6 to 1000 nM in assay [1] (setting [10]); 100 to 1000 nM in assay [2] (setting [6]); 100 to 1000 nM in assay [2] (setting [7]); 100 to 1000 nM in assay [3] (setting [8]); 100 to 1000 nM in assay [3] (setting [9]).
For `COc1ccc(F)cc1S(=O)(=O)Nc1cccc(-c2nc(C(C)C)sc2-c2ccnc(NC3CCN(S(C)(=O)=O)CC3)n2)c1` [Example 150], the IC50 in assay [1] (setting [4]) was 100 to 1000 nM; in assay [1] (setting [10]), 31.6 to 1000 nM; in assay [2] (setting [6]), 100 to 1000 nM; in assay [2] (setting [7]), 100 to 1000 nM; in assay [3] (setting [8]), 100 to 1000 nM; in assay [3] (setting [9]) it was 100 to 1000 nM.
In the case of `CC(C)c1nc(-c2ccc(F)c(NS(=O)(=O)c3ccc(F)cc3F)c2)c(-c2ccnc(NCCS(C)(=O)=O)n2)s1` [Example 29, 2,4-Difluoro-N-{2-fluoro-5-[2-(1-methylethyl)-5-(2-{[2-(methylsulfonyl)ethyl]amino}-4-pyrimidinyl)-1,3-thiazol-4-yl]phenyl}benzenesulfonamide], the IC50 in assay [1] (setting [4]) was < 100 nM; in assay [1] (setting [5]), 3.16 to 31.6 nM; in assay [2] (setting [6]) it was 100 to 1000 nM; in assay [2] (setting [7]) it was 100 to 1000 nM; in assay [3] (setting [8]) it was 100 to 1000 nM; in assay [3] (setting [9]) it was 100 to 1000 nM.
Take `CC(C)c1nc(-c2ccc(F)c(NS(=O)(=O)c3cc(F)ccc3F)c2)c(-c2ccnc(NC3CC(C)(C)N(C)C(C)(C)C3)n2)s1` [Example 132]: the IC50 is < 100 nM in assay [1] (setting [4]); ≤ 3.16 nM in assay [1] (setting [10]); 100 to 1000 nM in assay [2] (setting [6]); 100 to 1000 nM in assay [2] (setting [7]); 100 to 1000 nM in assay [3] (setting [8]); 100 to 1000 nM in assay [3] (setting [9]).
As for `COc1ccc(F)cc1S(=O)(=O)Nc1cccc(-c2nc(C(C)C)sc2-c2ccnc(NCC(C)C)n2)c1` [Example 38, 5-Fluoro-N-[3-(2-(1-methylethyl)-5-{2-[(2-methylpropyl)amino]-4-pyrimidinyl}-1,3-thiazol-4-yl)phenyl]-2-(methyloxy)benzenesulfonamide], the IC50 in assay [1] (setting [4]) is 100 to 1000 nM; in assay [1] (setting [10]) it was 31.6 to 1000 nM; in assay [2] (setting [6]), > 1000 nM; in assay [2] (setting [7]), 1000 to 10000 nM; in assay [3] (setting [8]), > 1000 nM; in assay [3] (setting [9]), 1000 to 10000 nM.
As to `Cn1cc(S(=O)(=O)Nc2cccc(-c3nc(C(C)(C)C)sc3-c3ccnc(N)n3)c2F)cn1` [Example 283, N-{3-[5-(2-amino-4-pyrimidinyl)-2-(1,1-dimethylethyl)-1,3-thiazol-4-yl]-2-fluorophenyl}-1-methyl-1H-pyrazole-4-sulfonamide hydrochloride], the IC50 in assay [1] (setting [5]) is 3.16 to 31.6 nM; in assay [2] (setting [7]) it was 100 to 1000 nM; in assay [3] (setting [9]), 100 to 1000 nM.
As for `CC(C)c1nc(-c2cccc(NS(=O)(=O)c3cc(F)ccc3F)c2F)c(-c2ccnc(NCCCNC(=O)OC(C)(C)C)n2)s1` [Example 193], the IC50 in assay [1] (setting [4]) was < 100 nM; in assay [1] (setting [5]) it was 3.16 to 31.6 nM; in assay [2] (setting [6]), 100 to 1000 nM; in assay [2] (setting [7]), 100 to 1000 nM; in assay [3] (setting [8]) it was 100 to 1000 nM; in assay [3] (setting [9]), 100 to 1000 nM.
For the compound `Nc1nccc(-c2sc(N3CCOCC3)nc2-c2cccc(NS(=O)(=O)N3CCCCC3)c2F)n1` [Example 49, N-{3-[5-(2-Amino-4-pyrimidinyl)-2-(4-morpholinyl)-1,3-thiazol-4-yl]-2-fluorophenyl}-1-piperidinesulfonamide], the IC50 in assay [1] (setting [4]) is 100 to 1000 nM; in assay [1] (setting [10]) it was 31.6 to 1000 nM; in assay [2] (setting [6]) it was 100 to 1000 nM; in assay [2] (setting [7]), 100 to 1000 nM; in assay [3] (setting [8]) it was 100 to 1000 nM; in assay [3] (setting [9]), 100 to 1000 nM.
On to `Nc1nccc(-c2sc(N3CCOCC3)nc2-c2cccc(NS(=O)(=O)c3cc(F)ccc3F)c2F)n1` [Example 56, N-{3-[5-(2-Amino-4-pyrimidinyl)-2-(4-morpholinyl)-1,3-thiazol-4-yl]-2-fluorophenyl}-2,5-difluorobenzenesulfonamide], for which the IC50 was < 100 nM in assay [1] (setting [4]); ≤ 3.16 nM in assay [1] (setting [10]); < 100 nM in assay [2] (setting [6]); < 100 nM in assay [2] (setting [7]); < 100 nM in assay [3] (setting [8]); < 100 nM in assay [3] (setting [9]).
Regarding `CC(C)c1nc(-c2ccc(F)c(NS(=O)(=O)c3cc(F)ccc3F)c2)c(-c2ccnc(NC3CCN(C)CC3)n2)s1` [Example 123], the IC50 in assay [1] (setting [4]) is < 100 nM; in assay [1] (setting [10]), 31.6 to 1000 nM; in assay [2] (setting [6]), 100 to 1000 nM; in assay [2] (setting [7]), 100 to 1000 nM; in assay [3] (setting [8]), > 1000 nM; in assay [3] (setting [9]), 1000 to 10000 nM.
Turning to `CC(C)(C)c1nc(-c2cccc(NS(=O)(=O)c3cc(F)ccc3F)c2F)c(-c2ccnc(CCC(=O)N3CCS(=O)(=O)CC3)n2)s1` [Example 255, N-[3-(2-(1,1-dimethylethyl)-5-{2-[3-(1,1-dioxido-4-thiomorpholinyl)-3-oxopropyl]-4-pyrimidinyl}-1,3-thiazol-4-yl)-2-fluorophenyl]-2,5-difluorobenzenesulfonamide], the IC50 in assay [1] (setting [5]) is 3.16 to 31.6 nM; in assay [2] (setting [7]) it was < 100 nM; in assay [3] (setting [9]) it was < 100 nM.
On to `CC(C)CNc1nccc(-c2sc(C(C)(C)C)nc2-c2cccc(NS(=O)(=O)c3c(F)cccc3F)c2Cl)n1` [Example 19, N-[2-Chloro-3-(2-(1,1-dimethylethyl)-5-{2-[(2-methylpropyl)amino]-4-pyrimidinyl}-1,3-thiazol-4-yl)phenyl]-2,6-difluorobenzenesulfonamide], for which the IC50 is < 100 nM in assay [1] (setting [4]); 3.16 to 31.6 nM in assay [1] (setting [5]); < 100 nM in assay [2] (setting [6]); < 100 nM in assay [2] (setting [7]); < 100 nM in assay [3] (setting [8]); < 100 nM in assay [3] (setting [9]).
For the compound `Nc1nccc(-c2sc(N3CCS(=O)(=O)CC3)nc2-c2cccc(NS(=O)(=O)c3cc(F)ccc3F)c2F)n1` [Example 142], the IC50 was < 100 nM in assay [1] (setting [4]); ≤ 3.16 nM in assay [1] (setting [10]); < 100 nM in assay [2] (setting [6]); < 100 nM in assay [2] (setting [7]); < 100 nM in assay [3] (setting [8]); < 100 nM in assay [3] (setting [9]).
On to `CC(C)c1nc(-c2cccc(NS(=O)(=O)c3ccco3)c2)c(-c2ccnc(NCCS(C)(=O)=O)n2)s1` [Example 30, N-{3-[2-(1-Methylethyl)-5-(2-{[2-(methylsulfonyl)ethyl]amino}-4-pyrimidinyl)-1,3-thiazol-4-yl]phenyl}-2-furansulfonamide], for which the IC50 in assay [1] (setting [4]) is < 100 nM; in assay [1] (setting [10]), ≤ 3.16 nM; in assay [2] (setting [6]), < 100 nM; in assay [2] (setting [7]), < 100 nM; in assay [3] (setting [8]), < 100 nM; in assay [3] (setting [9]) it was < 100 nM.
In the case of `CNc1nccc(-c2sc(C(C)C)nc2-c2ccc(F)c(NS(=O)(=O)c3c(F)cccc3F)c2)n1` [Example 119], the IC50 in assay [1] (setting [4]) is 100 to 1000 nM; in assay [1] (setting [10]), 31.6 to 1000 nM; in assay [2] (setting [6]), > 1000 nM; in assay [3] (setting [8]) it was > 1000 nM; in assay [3] (setting [9]), 1000 to 10000 nM.
Turning to `CC(C)(C)c1nc(-c2cccc(NS(=O)(=O)c3cc(F)ccc3F)c2F)c(-c2ccnc(CCC(=O)N3CCOCC3)n2)s1` [Example 254, N-[3-(2-(1,1-dimethylethyl)-5-{2-[3-(4-morpholinyl)-3-oxopropyl]-4-pyrimidinyl}-1,3-thiazol-4-yl)-2-fluorophenyl]-2,5-difluorobenzenesulfonamide], the IC50 in assay [1] (setting [5]) was 3.16 to 31.6 nM; in assay [2] (setting [7]) it was 100 to 1000 nM; in assay [3] (setting [9]), < 100 nM.
In the case of `CC(C)c1nc(-c2ccc(F)c(NS(=O)(=O)c3c(F)cccc3F)c2)c(-c2ccnc(N[C@H]3CC[C@H](NS(C)(=O)=O)CC3)n2)s1` [Example 141], the IC50 in assay [1] (setting [4]) is < 100 nM; in assay [1] (setting [5]), 3.16 to 31.6 nM; in assay [2] (setting [6]) it was < 100 nM; in assay [2] (setting [7]) it was < 100 nM; in assay [3] (setting [8]), < 100 nM; in assay [3] (setting [9]), < 100 nM.
